According to patent publication US20230159597A1 (priority 2020, published 2023):

System: wild-type EBOV Mayinga

SMILES	relative potency	IC50 times higher than both TAT-EBO-PEG4-Chol and TAT-EBO-dPEG4-Chol
CC[C@H](C)[C@H](NC(=O)CNC(=O)[C@H](CO)NC(=O)CNC(=O)[C@H](CCCNC(=N)N)NC(=O)[C@H](CCCNC(=N)N)NC(=O)[C@H](CCCNC(=N)N)NC(=O)[C@H](CCC(N)=O)NC(=O)[C@H](CCCNC(=N)N)NC(=O)[C@H](CCCNC(=N)N)NC(=O)[C@H](CCCCN)NC(=O)[C@H](CCCCN)NC(=O)[C@H](CCCNC(=N)N)NC(=O)CNC(=O)[C@H](Cc1ccc(O)cc1)NC(C)=O)C(=O)N[C@@H](C)C(=O)N[C@@H](C)C(=O)N[C@H](C(=O)N[C@@H](CC(C)C)C(=O)N1CCC[C@H]1C(=O)N[C@@H](Cc1c[nH]cn1)C(=O)N[C@@H](CC(=O)O)C(=O)N[C@@H](Cc1c[nH]c2ccccc12)C(=O)N[C@H](C(=O)N[C@@H](CCCCN)C(=O)N[C@@H](CC(N)=O)C(=O)N[C@H](C(=O)N[C@H](C(=O)N[C@@H](CC(=O)O)C(=O)N[C@@H](CCCCN)C(=O)N[C@H](C(=O)N[C@@H](CC(=O)O)C(=O)N[C@@H](CCC(N)=O)C(=O)N[C@H](C(=O)N[C@H](C(=O)N[C@@H](Cc1c[nH]cn1)C(=O)N[C@@H](CC(=O)O)C(=O)N[C@@H](Cc1ccccc1)C(=O)N[C@H](C(=O)N[C@@H](CC(=O)O)C(=O)N[C@@H](CCCCN)C(=O)NCC(=O)N[C@@H](CO)C(=O)NCC(=O)N[C@@H](CO)C(=O)NCC(=O)N[C@@H](CSCC(=O)O[C@H]1CC[C@@]2(C)C(=CC[C@H]3[C@@H]4CC[C@H]([C@H](C)CCCC(C)C)[C@@]4(C)CC[C@@H]32)C1)C(N)=O)C(C)C)[C@@H](C)CC)[C@@H](C)CC)[C@@H](C)CC)[C@@H](C)O)[C@@H](C)CC)[C@@H](C)O)[C@@H](C)CC [TAT-EBO-IAAILP-Chol]	the most potent peptide we designed so far	
CC[C@H](C)[C@H](NC(=O)CNC(=O)[C@H](CO)NC(=O)CNC(=O)[C@H](CCCNC(=N)N)NC(=O)[C@H](CCCNC(=N)N)NC(=O)[C@H](CCCNC(=N)N)NC(=O)[C@H](CCC(N)=O)NC(=O)[C@H](CCCNC(=N)N)NC(=O)[C@H](CCCNC(=N)N)NC(=O)[C@H](CCCCN)NC(=O)[C@H](CCCCN)NC(=O)[C@H](CCCNC(=N)N)NC(=O)CNC(=O)[C@H](Cc1ccc(O)cc1)NC(C)=O)C(=O)N[C@@H](C)C(=O)N[C@@H](C)C(=O)N[C@H](C(=O)N[C@@H](CC(C)C)C(=O)N1CCC[C@H]1C(=O)N[C@@H](Cc1c[nH]cn1)C(=O)N[C@@H](CC(=O)O)C(=O)N[C@@H](Cc1c[nH]c2ccccc12)C(=O)N[C@H](C(=O)N[C@@H](CCCCN)C(=O)N[C@@H](CC(N)=O)C(=O)N[C@H](C(=O)N[C@H](C(=O)N[C@@H](CC(=O)O)C(=O)N[C@@H](CCCCN)C(=O)N[C@H](C(=O)N[C@@H](CC(=O)O)C(=O)N[C@@H](CCC(N)=O)C(=O)N[C@H](C(=O)N[C@H](C(=O)N[C@@H](Cc1c[nH]cn1)C(=O)N[C@@H](CC(=O)O)C(=O)N[C@@H](Cc1ccccc1)C(=O)N[C@H](C(=O)N[C@@H](CC(=O)O)C(=O)N[C@@H](CCCCN)C(=O)NCC(=O)N[C@@H](CO)C(=O)NCC(=O)N[C@@H](CO)C(=O)NCC(=O)N[C@@H](CSCC(=O)NCCOCCOCCOCCOCCC(=O)O[C@H]1CC[C@@]2(C)C(=CC[C@H]3[C@@H]4CC[C@H]([C@H](C)CCCC(C)C)[C@@]4(C)CC[C@@H]32)C1)C(N)=O)C(C)C)[C@@H](C)CC)[C@@H](C)CC)[C@@H](C)CC)[C@@H](C)O)[C@@H](C)CC)[C@@H](C)O)[C@@H](C)CC [TAT-EBO-IAAILP-PEG4-Chol]		around 10 times
